Read-outs that look alike come from different tables or passages of the source.
What was measured:
[1] = test system: 29 enzymes and 72 receptors, including the glucocorticoid and mineralocorticoid receptors; assay: Off-target diversity screen (data not shown); conditions: in words
[2] = CSF study, plasma and CSF pharmacokinetics; assay type: in vivo; conditions: human; for Tmax: median (range); for Kp at 5 h / concentration at 5 h / Cmax / half-life / AUC(0-t): 35 mg; for concentration at 5 h: CSF; for AUC(0-t): read-out: AUC0–12h
Procedure: (§1) A non‐randomized, open label, multiple dose phase I study to determine the pharmacokinetic parameters of UE2343 in CSF was carried out at Linear Clinical Research Ltd, Nedlands, Australia. Four healthy male subjects each received 35 mg UE2343 b.i.d (12 hourly) fed (30 min after the start of a standard meal) for 3 days (Day 1 to Day 3) and once on the morning of Day 4 (seven doses in total). Plasma pharmacokinetic samples were taken from each subject on Day 1 and Day 4. A single CSF sample was taken from each subject at 5 h post‐final dose on Day 4, corresponding to the plasma Tmax (time to maximum plasma concentration).
(§2) Laboratory evaluation of clinical safety parameters was carried out using standard validated methods. Measurement of plasma pharmacodynamic markers [adrenocorticotropic hormone (ACTH), cortisol, 4‐androstenedione, testosterone and dehydroepiandrosterone sulphate (DHEA‐s)] was carried out using commercially available kits. Each method was fully validated prior to analysis. Urinary steroid metabolites were measured according to established methods (Boonen et al., 2013). UE2343 levels in plasma, urine and CSF was determined by LC–MS/MS using fully validated methods.
(§3) The data and statistical analysis comply with the recommendations on experimental design and analysis in pharmacology (Curtis et al., 2015). Levels of probability, P < 0.05 were deemed to constitute the threshold for statistical significance. Pharmacokinetic parameters, except Tmax (time of maximum observed drug concentration), are given as mean ± coefficient of variation (CV%). Tmax is given as median ± range. For each of the pharmacodynamic parameters [ACTH, cortisol, adrenal androgens, tetrahydrocortisols (THFs)/tetrahydrocortisone (THE) ratio], the maximum % change from baseline for each subject was subjected to ANOVA. For selected data, an additional covariate factor for the baseline was also included in the ANOVA/analysis of covariance (ANCOVA) model. Associated P‐values <0.05 for each comparison have been presented.

hERG K+ channel = target: T1, hERG K+ channel (Homo sapiens, UniProt Q12809); assay: hERG inhibition, IonWorks Quattro patch clamp; assay type: cell-based
T1 construct: Chinese hamster lung cell line stably expressing the full length hERG channel; host or cells: Chinese hamster lung cell line
Procedure: Testing was performed by Essen Instruments, Hertfordshire, UK. Compounds were tested for inhibition of the human ether a go‐go related gene (hERG) K+ channel in a Chinese hamster lung cell line stably expressing the full length hERG channel. Single cell ionic currents were measured in the perforated patch clamp configuration at room temperature using an IonWorks Quattro instrument. Eight‐point concentration–response curves were generated using threefold serial dilutions from the maximum final assay concentration. IC50 values were obtained from a four‐parameter logistic fit of the % inhibition data.

[3] = Microsomal stability, human liver microsomes; assay type: in vitro ADME; conditions: mean ± SD [n]
Procedure: Microsomal stability was determined using pooled human, rat or dog liver microsomes according to the method described in WO2011135276 (Webster et al., 2011a).

[4] = Clinical safety and tolerability in healthy subjects; assay type: in vivo, human
Procedure: A double‐blind, randomized, placebo‐controlled single ascending dose study was carried out at Simbec Research Ltd, Merthyr Tydfil, UK. Each cohort consisted of six healthy male subjects and two females of non‐child bearing potential. Two male ‘dose leader’ subjects (1 active : 1 placebo) were dosed first in each cohort. The remainder of the cohort (5 active : 1 placebo) were dosed 24 h later. Dose cohorts were 2, 5, 10, 18, 25 and 35 mg. Safety, pharmacokinetic and pharmacodynamic assessments were made at pre‐determined time‐points during each part of the study. Dose escalation was dependent upon satisfactory review of the blinded safety (up to Day 6) and pharmacokinetic (up to 24 h post‐dose) data from the preceding cohort.
(§4) A double‐blind, randomized, placebo‐controlled multiple ascending dose study was carried out at Linear Clinical Research Ltd, Nedlands, Australia. Each cohort consisted of eight healthy male subjects. Each subject received UE2343 or placebo twice daily (b.i.d ) (12 hourly) in the fed state for 9 days (Day 1 to Day 9) and once on the morning of Day 10 (19 doses in total). Dose cohorts were 10, 20 and 35 mg. Dose escalation and selection was dependent upon satisfactory review of the blinded safety (up to Day 17 ± 2) and plasma pharmacokinetics (up to Day 12) data from the preceding cohort. Safety, pharmacokinetic and pharmacodynamic assessments were made at pre‐determined time‐points during each part of the study.
as §1, §2

CYP2D6 = target: T2, CYP2D6 (Homo sapiens, UniProt P10635); assay: Cytochrome P450 inhibition, CYP2D6; assay type: in vitro ADME; conditions: human liver microsomes; read-out: CYP450 isoform 2D6 IC50
T2 construct: tissue Cyprotex Discovery Limited; host or cells: human liver microsomes
Procedure: Testing was performed by Cyprotex Discovery Limited, Cheshire, UK. Six test compound concentrations (0.4, 1, 4, 10, 40 and 100 μM; final DMSO concentration 0.25%, final microsome concentration 0.25 mg·mL^−1) were either pre‐incubated for 30 min in the absence and presence of NADPH or underwent a 0 min pre‐incubation with human liver microsomes. At the end of the pre‐incubation period, the probe substrate for each cytochrome P450 (CYP450) isoform (30 μM) and NADPH (1 mM) were then added (final DMSO concentration 0.3%), and the samples were incubated for 5 min at 37°C. Probe substrates were as follows: 1A2 – phenacetin, 2C9 – diclofenac, 2C19 – mephenytoin, 2D6 – dextromethorphan, 3A4 – midazolam and testosterone. Samples were subjected to LC–MS/MS analysis to determine metabolite concentrations. A decrease in the formation of the metabolite compared with vehicle control was used to calculate an IC50 value (test compound concentration which produces 50% inhibition) for each experimental condition.

[5] = test system: HPA axis hormones and steroids; assay: Multiple ascending dose study, HPA axis hormones and steroids; assay type: in vivo; conditions: human, not significant vs placebo
Procedure: as §4, §2
as §3, with “Associated P‐values <0.05 for each comparison have been presented.” left out

[6] = male, plasma, oral, 35 mg b.i.d, Day 1, mean (CV%)
[7] = male, plasma, oral, 35 mg b.i.d, Day 4, mean (CV%)
[8] = multiple ascending dose study, 24 subjects (active and placebo)
[9] = multiple ascending dose study, in words

T1 sequence (Q12809 whole entry): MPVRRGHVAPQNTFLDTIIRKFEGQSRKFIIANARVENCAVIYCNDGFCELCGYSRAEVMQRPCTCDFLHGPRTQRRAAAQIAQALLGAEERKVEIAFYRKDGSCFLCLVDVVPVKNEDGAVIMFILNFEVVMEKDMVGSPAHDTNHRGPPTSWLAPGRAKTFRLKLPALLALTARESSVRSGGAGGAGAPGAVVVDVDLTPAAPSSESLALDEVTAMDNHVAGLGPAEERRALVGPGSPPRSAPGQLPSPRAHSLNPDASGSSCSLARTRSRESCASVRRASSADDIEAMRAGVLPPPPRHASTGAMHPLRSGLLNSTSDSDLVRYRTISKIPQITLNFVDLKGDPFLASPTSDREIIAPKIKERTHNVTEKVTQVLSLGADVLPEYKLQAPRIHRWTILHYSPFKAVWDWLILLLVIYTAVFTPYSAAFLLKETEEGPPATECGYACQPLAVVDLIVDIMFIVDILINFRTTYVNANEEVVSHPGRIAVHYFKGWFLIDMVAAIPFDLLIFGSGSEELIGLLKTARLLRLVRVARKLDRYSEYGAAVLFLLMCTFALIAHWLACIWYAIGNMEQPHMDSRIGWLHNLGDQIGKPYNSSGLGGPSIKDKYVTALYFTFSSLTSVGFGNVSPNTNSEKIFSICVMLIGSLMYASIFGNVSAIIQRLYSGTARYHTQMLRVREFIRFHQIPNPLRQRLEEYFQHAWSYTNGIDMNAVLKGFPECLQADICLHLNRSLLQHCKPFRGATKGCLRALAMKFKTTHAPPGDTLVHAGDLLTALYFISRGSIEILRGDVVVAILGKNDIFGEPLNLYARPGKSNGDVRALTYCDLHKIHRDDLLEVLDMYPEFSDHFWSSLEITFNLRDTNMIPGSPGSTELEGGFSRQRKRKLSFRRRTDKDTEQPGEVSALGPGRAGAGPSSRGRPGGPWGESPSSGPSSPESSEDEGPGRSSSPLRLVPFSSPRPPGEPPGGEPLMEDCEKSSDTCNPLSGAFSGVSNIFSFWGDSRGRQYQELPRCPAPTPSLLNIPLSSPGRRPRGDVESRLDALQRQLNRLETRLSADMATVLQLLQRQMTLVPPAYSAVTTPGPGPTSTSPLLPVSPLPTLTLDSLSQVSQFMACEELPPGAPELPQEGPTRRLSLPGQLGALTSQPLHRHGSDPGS
T2 sequence (P10635 whole entry, canonical isoform): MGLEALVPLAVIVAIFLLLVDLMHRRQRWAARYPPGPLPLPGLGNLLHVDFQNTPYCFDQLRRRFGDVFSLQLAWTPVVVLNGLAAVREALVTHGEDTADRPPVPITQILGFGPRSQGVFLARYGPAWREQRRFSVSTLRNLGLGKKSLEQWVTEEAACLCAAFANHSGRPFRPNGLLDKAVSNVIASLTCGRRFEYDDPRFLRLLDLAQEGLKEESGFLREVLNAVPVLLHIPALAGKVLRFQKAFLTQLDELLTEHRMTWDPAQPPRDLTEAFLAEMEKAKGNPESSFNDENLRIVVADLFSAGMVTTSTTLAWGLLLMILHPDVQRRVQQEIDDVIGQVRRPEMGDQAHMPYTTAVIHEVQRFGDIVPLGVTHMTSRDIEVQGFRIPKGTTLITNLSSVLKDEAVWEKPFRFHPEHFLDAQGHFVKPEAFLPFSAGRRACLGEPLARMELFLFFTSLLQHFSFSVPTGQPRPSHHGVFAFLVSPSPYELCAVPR

off‐target profile in diversity screen [1]: clean off‐target profile
CCSF, 5h (concentration in CSF) ([2]; 35 mg b.i.d, Day 4, 5 h post-dose, mean (CV%), listed as UE2343): 69.8 (44%) ng·mL^−1
Tmax ([2]; 35 mg b.i.d, Day 4): 5.1 (3–5) h
extent of accumulation in plasma after repeated dosing ([2]; 35 mg b.i.d, Day 4 vs Day 1): 3.3 fold
time post‐dose at which mean Cmax was reached ([2]; 35 mg b.i.d, Days 1 and 4): 5 h
CSF concentration relative to IC50 at Cmin ([2]; 35 mg twice daily, in words): more than fivefold
CSF concentration relative to IC50 at Cmax ([2]; 35 mg twice daily, in words, listed as UE2343): up to ninefold greater
Kp at 5 h ([2]; male, CSF (relative to free plasma), oral, 35 mg b.i.d, Day 4, read-out: CSF levels as % of the free plasma levels, range): 0.25 to 0.4
Kp at 5 h ([2]; male, CSF (relative to free plasma), oral, 35 mg b.i.d, at plasma Cmax on Day 4, read-out: mean CSF levels as % of the free plasma levels): 0.33
Kp at 5 h ([2]; male, CSF (relative to total plasma), oral, 35 mg b.i.d, Day 4, read-out: CSF concentration as % of simultaneous total plasma levels, range): 0.0746 to 0.119
Kp at 5 h ([2]; male, CSF (relative to total plasma), oral, 35 mg b.i.d, at plasma Cmax on Day 4, read-out: mean CSF levels as % of the total plasma levels): 0.1
concentration at 5 h ([2]; male, oral, 35 mg b.i.d, Day 4, 5 h post-dose, mean (CV%), read-out: CCSF, 5h (concentration in CSF)): 69.8 ng/mL
concentration at 5 h ([2]; male, oral, 35 mg b.i.d, Day 4, 5 h post-dose, read-out: concentration in the CSF, range over subjects): 41.2 to 99.9 ng/mL
Cmax [2, 6]: 235 ng/mL
half-life [2, 6]: 6.24 h
AUC(0-t) [2, 6]: 1710 ng·h/mL
Cmax [2, 7]: 708 ng/mL
half-life [2, 7]: 8.97 h
AUC(0-t) [2, 7]: 5670 ng·h/mL
Tmax ([2]; male, plasma, oral, 35 mg b.i.d, Day 1, read-out: Tmax): 5.1 h
Liver microsomal stability (% parent at 30 min), human [3]: 99 ± 1 [3] % parent at 30 min
IC50 (CYP2D6): > 50 µM
SMILES: O=C(c1csc(-c2cn[nH]c2)c1)N1C2CCC1CC(O)(c1ncccn1)C2 (stereo not drawn) [compound 4]
IC50 (hERG K+ channel; Chinese hamster lung cells expressing hERG, mean ± SD [n]): > 30 µM
inhibition of the hERG channel (hERG K+ channel; up to a concentration of 30 μM, in words): only marginal inhibition
safety and tolerability ([4]; 2 to 35 mg q.d and 10 to 35 mg b.i.d, in words): safe and well tolerated
intensity of TEAEs ([4]; CSF study, 35 mg b.i.d, in words): mild to moderate
increased alanine aminotransferase, subjects ([4]; CSF study, four subjects, in words): a single subject
diarrhoea, subjects [4, 8]: 2/24
headache (most common TEAE), subjects [4, 8]: 7/24
thrombophlebitis, subjects [4, 8]: 3/24
intensity of TEAEs [4, 9]: mild or moderate
serious TEAEs or TEAEs leading to withdrawal [4, 9]: No serious TEAEs
number of subjects with ≥1 TEAEs ([4]; single ascending dose study): 9
mean maximum percentage change in ACTH (from baseline) ([5]; 10 mg b.i.d): 222%
mean maximum percentage change in ACTH (from baseline) ([5]; 20 mg b.i.d): 195%
mean maximum percentage change in ACTH (from baseline) ([5]; 35 mg b.i.d): 230%

— PMC5301048, “Selection and early clinical evaluation of the brain‐penetrant 11β‐hydroxysteroid dehydrogenase type 1 (11β‐HSD1) inhibitor UE2343 (Xanamem™)” (British Journal of Pharmacology, 2017)
